Measured values reported in EP4707280A1, “1,4-CINEOLE DERIVATIVE AND INTERMEDIATE THEREOF, HERBICIDE CONTAINING SAID DERIVATIVE AS ACTIVE INGREDIENT, METHOD FOR USING HERBICIDE, AND METHOD FOR PREPARING AGROCHEMICAL COMPOSITION” (HOKKO CHEMICAL INDUSTRY CO., LTD., priority 2023, dated 2024).

Key:
Type in all cases: in vivo
Digitaria ciliaris [1] = experiment: Test Example 8: herbicidal effect test by stem and leaf treatment in upland field (low dose); details: Digitaria ciliaris; 7.5 g per 10 ares; sprayed seven days after sowing, upland soil; 14 days after application; read-out: weed inhibition rate
Digitaria ciliaris [2] = experiment: Test Example 7: herbicidal effect test by soil application in upland field (low dose); details: Digitaria ciliaris, 7.5 g per 10 ares, sprayed one day after sowing, 14 days after application, read-out: weed inhibition rate
Summary of the method: (§1)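 Upland alluvial loam pots, seeds mixed into top 1 cm of soil; one day after sowing, diluted emulsifiable concentrate sprayed on soil at 100 L/10 a, giving 7.5 g active ingredient/10 a. Duplicate pots; weed inhibition rate (%) scored 14 days after application.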

Echinochloa crus-galli = experiment: as above; details: Echinochloa crus-galli, 7.5 g per 10 ares, sprayed one day after sowing, 14 days after application, read-out: weed inhibition rate
Summary of the method: as §1

[3] = test system: Echinochloa crus-galli var. formosensis; experiment: Test Example 5: herbicidal effect test by soil application in paddy rice (low dose); details: Echinochloa crus-galli, soil, 336 h; 7.5 g per 10 ares; applied immediately after sowing, flooded pots; 14 days after application; read-out: weed inhibition rate
Summary of the method: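 Paddy-soil pots, weeds sown 0–1 cm deep and flooded to about 3 cm in a greenhouse. Emulsifiable concentrate diluted in water and dropped in right after sowing at 7.5 g active ingredient per 10 ares. Duplicates; effect scored 14 days after application.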

[4] = test system: Echinochloa crus-galli var. formosensis; experiment: Test Example 1: herbicidal effect test by soil application in paddy rice; details: Echinochloa crus-galli, soil, 336 h; 120 g active ingredient per 10 ares; applied immediately after sowing, flooded pots; 14 days after application; read-out: weed inhibition rate
Summary of the method: (§2)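 Treatment: 120 g active ingredient per 10 ares as a water-diluted emulsifiable concentrate, dropped onto flooded pots immediately after sowing. Thirty seeds per species went 0–1 cm into puddled paddy soil with 16:16:16 fertilizer, with ~3 cm flooding maintained in a glass greenhouse.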

Scirpus juncoides [5] = experiment: as above; details: Schoenoplectiella juncoides, soil, 336 h; 120 g active ingredient per 10 ares; applied immediately after sowing, flooded pots; 14 days after application; read-out: weed inhibition rate
Summary of the method: as §2

Amaranthus viridis = experiment: Test Example 3: herbicidal effect test by soil application in upland field; details: Amaranthus viridis, 120 g per 10 ares, sprayed one day after sowing, 14 days after application, read-out: weed inhibition rate
Summary of the method: (§3)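 Weed inhibition (%) was assessed 14 days after treatment, in duplicate per concentration group. Seeds had been mixed into the upper 1 cm of upland alluvial loam, and the soil surface was sprayed one day later with the diluted emulsifiable concentrate at 120 g active ingredient per 10 ares.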

Chenopodium album = experiment: as above; details: 120 g per 10 ares, sprayed one day after sowing, 14 days after application, read-out: weed inhibition rate
Summary of the method: as §3

Scirpus juncoides [6] = experiment: Test Example 6: herbicidal effect test by application during growth period of paddy rice (low dose); details: Schoenoplectiella juncoides; 7.5 g per 10 ares; applied seven days after sowing, flooded pots; 14 days after application; read-out: weed inhibition rate
Summary of the method: (§4)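 Emulsifiable concentrate, water-diluted, dropped onto flooded paddy pots 7 days post-sowing at 7.5 g active ingredient/10 a. Greenhouse-grown weeds; percent inhibition scored at day 14 after treatment.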

Monochoria vaginalis [7] = experiment: as above; details: Pontederia vaginalis; 7.5 g per 10 ares; applied seven days after sowing, flooded pots; 14 days after application; read-out: weed inhibition rate
Summary of the method: as §4

Monochoria vaginalis [8] = experiment: Test Example 1: herbicidal effect test by soil application in paddy rice; details: Pontederia vaginalis, soil, 336 h; 120 g active ingredient per 10 ares; applied immediately after sowing, flooded pots; 14 days after application; read-out: weed inhibition rate
Summary of the method: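 Inhibition rate (%) read 14 days after treatment, duplicate pots. Water-diluted emulsifiable concentrate was applied by dropper at 120 g active ingredient/10 ares right after sowing. Seeds (30 per species, 0–1 cm deep) went into puddled paddy soil kept flooded at about 3 cm in a greenhouse.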

CC(C)[C@]12C[C@@H](OCc3ccccc3F)[C@](C)(CC1OCC1CC1)O2 (mixture of isomers) [1-921, (1S,2R,4R,SR)-5-(cyclopropylmethoxy)-2-[(2-fluorophenyl)methoxy]-1-methyl-4-isopropyl-7-oxabicyclo[2.2.1]heptane]
≥ 80%: inhibition at 75 g/ha (Digitaria ciliaris [1]) | inhibition at 75 g/ha (Digitaria ciliaris [2]) | inhibition at 75 g/ha (Echinochloa crus-galli) | inhibition at 75 g/ha [3] | pest or weed control at 1200 g/ha [4] | pest or weed control at 1200 g/ha (Scirpus juncoides [5]) | inhibition at 1200 g/ha (Amaranthus viridis) | inhibition at 1200 g/ha (Chenopodium album) | inhibition at 75 g/ha (Scirpus juncoides [6]) | inhibition at 75 g/ha (Monochoria vaginalis [7]) | pest or weed control at 1200 g/ha (Monochoria vaginalis [8])

CC(C)[C@]12C=C[C@](C)(O1)C(OCc1ccccc1F)C2 (mixture of isomers) [3-5, (1R,4S,SR)-5-[(2-fluorophenyl)methoxy]-4-methyl-1-isopropyl-7-oxabicyclo[2.2.1]hept-2-ene]
≥ 80%: inhibition at 75 g/ha (Digitaria ciliaris [1]) | inhibition at 75 g/ha (Digitaria ciliaris [2]) | inhibition at 75 g/ha (Echinochloa crus-galli) | inhibition at 75 g/ha [3] | pest or weed control at 1200 g/ha [4] | pest or weed control at 1200 g/ha (Scirpus juncoides [5]) | inhibition at 1200 g/ha (Amaranthus viridis) | inhibition at 1200 g/ha (Chenopodium album) | inhibition at 75 g/ha (Scirpus juncoides [6]) | inhibition at 75 g/ha (Monochoria vaginalis [7]) | pest or weed control at 1200 g/ha (Monochoria vaginalis [8])

Cc1ccccc1CO[C@@H]1C[C@]2(C(C)C)O[C@@]1(C)C[C@@H]2F [1-2, (1R,2S,4S,5R)-2-fluoro-1-isopropyl-4-methyl-5-((2-methylbenzyl)oxy)-7-oxabicyclo[2.2.1]heptane]
≥ 80%: inhibition at 75 g/ha (Digitaria ciliaris [1]) | inhibition at 75 g/ha (Digitaria ciliaris [2]) | inhibition at 75 g/ha (Echinochloa crus-galli) | inhibition at 75 g/ha [3] | pest or weed control at 1200 g/ha [4] | pest or weed control at 1200 g/ha (Scirpus juncoides [5]) | inhibition at 1200 g/ha (Chenopodium album) | inhibition at 75 g/ha (Scirpus juncoides [6]) | inhibition at 75 g/ha (Monochoria vaginalis [7]) | pest or weed control at 1200 g/ha (Monochoria vaginalis [8])

CC(C)[C@]12C[C@@H](OCc3ccccc3F)[C@](C)(C[C@@H]1F)O2 [1-5, (1R,2S,4S,5R)-2-fluoro-5-((2-fluorobenzyl)oxy)-1-isopropyl-4-methyl-7-oxabicyclo[2.2.1]heptane]
≥ 80%: inhibition at 75 g/ha (Digitaria ciliaris [1]) | inhibition at 75 g/ha (Digitaria ciliaris [2]) | inhibition at 75 g/ha (Echinochloa crus-galli) | inhibition at 75 g/ha [3] | pest or weed control at 1200 g/ha [4] | pest or weed control at 1200 g/ha (Scirpus juncoides [5]) | inhibition at 1200 g/ha (Chenopodium album) | inhibition at 75 g/ha (Scirpus juncoides [6]) | inhibition at 75 g/ha (Monochoria vaginalis [7]) | pest or weed control at 1200 g/ha (Monochoria vaginalis [8])

CC(C)[C@]12C[C@@H](OCc3c(F)cccc3F)[C@](C)(C[C@@H]1F)O2 [1-7, (1S,2R,4R,5S)-2-((2,6-difluorobenzyl)oxy)-5-fluoro-4-isopropyl-1-methyl-7-oxabicyclo[2.2.1]heptane]
≥ 80%: inhibition at 75 g/ha (Digitaria ciliaris [1]) | inhibition at 75 g/ha (Digitaria ciliaris [2]) | inhibition at 75 g/ha (Echinochloa crus-galli) | inhibition at 75 g/ha [3] | pest or weed control at 1200 g/ha [4] | pest or weed control at 1200 g/ha (Scirpus juncoides [5]) | inhibition at 1200 g/ha (Amaranthus viridis) | inhibition at 1200 g/ha (Chenopodium album) | inhibition at 75 g/ha (Monochoria vaginalis [7]) | pest or weed control at 1200 g/ha (Monochoria vaginalis [8])

CC(C)[C@]12C[C@@H](OCc3ccccc3F)[C@](C)(C[C@@H]1O)O2 [1-30, (1R,2S,4S,5R)-5-((2-fluorobenzyl)oxy)-1-isopropyl-4-methyl-7-oxabicyclo[2.2.1]heptan-2-ol]
≥ 80%: inhibition at 75 g/ha (Digitaria ciliaris [1]) | inhibition at 75 g/ha (Digitaria ciliaris [2]) | inhibition at 75 g/ha (Echinochloa crus-galli) | inhibition at 75 g/ha [3] | pest or weed control at 1200 g/ha [4] | pest or weed control at 1200 g/ha (Scirpus juncoides [5]) | inhibition at 1200 g/ha (Amaranthus viridis) | inhibition at 1200 g/ha (Chenopodium album) | inhibition at 75 g/ha (Scirpus juncoides [6]) | pest or weed control at 1200 g/ha (Monochoria vaginalis [8])

CC(C)[C@]12C[C@@H](OCc3c(F)cccc3F)[C@](C)(C[C@@H]1O)O2 [1-41, (1R,2S,4S,5R)-5-((2,6-difluorobenzyl)oxy)-1-isopropyl-4-methyl-7-oxabicyclo[2,2,1]heptan-2-ol]
≥ 80%: inhibition at 75 g/ha (Digitaria ciliaris [1]) | inhibition at 75 g/ha (Digitaria ciliaris [2]) | inhibition at 75 g/ha (Echinochloa crus-galli) | inhibition at 75 g/ha [3] | pest or weed control at 1200 g/ha [4] | pest or weed control at 1200 g/ha (Scirpus juncoides [5]) | inhibition at 1200 g/ha (Amaranthus viridis) | inhibition at 1200 g/ha (Chenopodium album) | inhibition at 75 g/ha (Scirpus juncoides [6]) | pest or weed control at 1200 g/ha (Monochoria vaginalis [8])

Cc1ccccc1CO[C@@H]1C[C@]2(C(C)C)O[C@@]1(C)CC2C (stereo partly drawn) [1-83, (1S,2R,4R)-4-isopropyl-1,5-dimethyl-2-((2-methylbenzyl)oxy)-7-oxabicyclo[2.2.1]heptane]
≥ 80%: inhibition at 75 g/ha (Digitaria ciliaris [1]) | inhibition at 75 g/ha (Digitaria ciliaris [2]) | inhibition at 75 g/ha (Echinochloa crus-galli) | inhibition at 75 g/ha [3] | pest or weed control at 1200 g/ha [4] | pest or weed control at 1200 g/ha (Scirpus juncoides [5]) | inhibition at 1200 g/ha (Chenopodium album) | inhibition at 75 g/ha (Scirpus juncoides [6]) | inhibition at 75 g/ha (Monochoria vaginalis [7]) | pest or weed control at 1200 g/ha (Monochoria vaginalis [8])

CO[C@H]1C[C@]2(C)O[C@@]1(C(C)C)C[C@H]2OCc1ccccc1F [1-156, (1S,2R,4R,5S)-2-((2-fluorobenzyl)oxy)-4-isopropyl-5-methoxy-1-methyl-7-oxabicyclo[2.2.1]heptane]
≥ 80%: inhibition at 75 g/ha (Digitaria ciliaris [1]) | inhibition at 75 g/ha (Digitaria ciliaris [2]) | inhibition at 75 g/ha (Echinochloa crus-galli) | inhibition at 75 g/ha [3] | pest or weed control at 1200 g/ha [4] | pest or weed control at 1200 g/ha (Scirpus juncoides [5]) | inhibition at 1200 g/ha (Amaranthus viridis) | inhibition at 1200 g/ha (Chenopodium album) | inhibition at 75 g/ha (Scirpus juncoides [6]) | inhibition at 75 g/ha (Monochoria vaginalis [7]) | pest or weed control at 1200 g/ha (Monochoria vaginalis [8])

Cc1ccccc1CO[C@@H]1C[C@]2(C(C)C)O[C@@]1(C)CC2=O [2-3, (1R,4S,5R)-1-isopropyl-4-methyl-5-((2-methylbenzyl)oxy)-7-oxabicyclo[2.2.1]heptan-2-one]
≥ 80%: inhibition at 75 g/ha (Digitaria ciliaris [1]) | inhibition at 75 g/ha (Digitaria ciliaris [2]) | inhibition at 75 g/ha (Echinochloa crus-galli) | inhibition at 75 g/ha [3] | pest or weed control at 1200 g/ha [4] | pest or weed control at 1200 g/ha (Scirpus juncoides [5]) | inhibition at 1200 g/ha (Chenopodium album) | inhibition at 75 g/ha (Scirpus juncoides [6]) | inhibition at 75 g/ha (Monochoria vaginalis [7]) | pest or weed control at 1200 g/ha (Monochoria vaginalis [8])

CC(C)[C@]12C[C@@H](OCc3ccccc3Cl)[C@](C)(CC1=O)O2 [2-11, (1R,4S,5R)-5-((2-chlorobenzyl)oxy)-1-isopropyl-4-methyl-7-oxabicyclo[2.2.1]heptan-2-one]
≥ 80%: inhibition at 75 g/ha (Digitaria ciliaris [1]) | inhibition at 75 g/ha (Digitaria ciliaris [2]) | inhibition at 75 g/ha (Echinochloa crus-galli) | inhibition at 75 g/ha [3] | pest or weed control at 1200 g/ha [4] | pest or weed control at 1200 g/ha (Scirpus juncoides [5]) | inhibition at 1200 g/ha (Amaranthus viridis) | inhibition at 1200 g/ha (Chenopodium album)

CC(C)[C@]12C[C@@H](OCc3c(F)cccc3F)[C@](C)(CC1=O)O2 [2-20, (1R,4S,5R)-5-((2,6-difluorobenzyl)oxy)-1-isopropyl-4-methyl-7-oxabicyclo[2.2.1]heptan-2-one]
≥ 80%: inhibition at 75 g/ha (Digitaria ciliaris [1]) | inhibition at 75 g/ha (Digitaria ciliaris [2]) | inhibition at 75 g/ha (Echinochloa crus-galli) | inhibition at 75 g/ha [3] | pest or weed control at 1200 g/ha [4] | pest or weed control at 1200 g/ha (Scirpus juncoides [5]) | inhibition at 1200 g/ha (Amaranthus viridis) | inhibition at 1200 g/ha (Chenopodium album) | pest or weed control at 1200 g/ha (Monochoria vaginalis [8])

CC(C)[C@]12C[C@@H](OCc3ccc(F)cc3)[C@](C)(CC1=O)O2 [2-349, (1R,4S,5R)-5-((4-fluorobenzyl)oxy)-1-isopropyl-4-methyl-7-oxabicyclo[2.2.1]heptan-2-one]
≥ 80%: inhibition at 75 g/ha (Digitaria ciliaris [1]) | inhibition at 75 g/ha (Digitaria ciliaris [2]) | inhibition at 75 g/ha (Echinochloa crus-galli) | inhibition at 75 g/ha [3] | pest or weed control at 1200 g/ha [4] | pest or weed control at 1200 g/ha (Scirpus juncoides [5]) | inhibition at 1200 g/ha (Amaranthus viridis) | inhibition at 1200 g/ha (Chenopodium album) | pest or weed control at 1200 g/ha (Monochoria vaginalis [8])
